Experimental data as given in the NIST ThermoML archive (doi:10.1021/je300530z).
Numbers after ± are expanded uncertainties.

Columns and labels:
[1] = wn = mass fraction of the nth substance listed; details: Liquid, Vibrating tube method
[2] = 100 kPa, Liquid, Vibrating tube method

## OCCNCCO [diethanolamine] + O
[1]; 293.15 K, 101 kPa, w1 = 0.5
  mass density: 1060.7 ± 3.5 kg/m3
[1]; 293.15 K, 101 kPa, w1 = 0.6
  mass density: 1073.1 ± 3.5 kg/m3
[1]; 293.15 K, 101 kPa, w1 = 0.7
  mass density: 1082.5 ± 3.4 kg/m3
[1]; 293.15 K, 101 kPa, w1 = 0.8
  mass density: 1089.6 ± 3.4 kg/m3
[1]; 303.15 K, 101 kPa, w1 = 0.5
  mass density: 1055.5 ± 3.5 kg/m3
[1]; 303.15 K, 101 kPa, w1 = 0.6
  mass density: 1067.4 ± 3.5 kg/m3
[1]; 303.15 K, 101 kPa, w1 = 0.7
  mass density: 1076.5 ± 3.4 kg/m3
[1]; 303.15 K, 101 kPa, w1 = 0.8
  mass density: 1083.6 ± 3.4 kg/m3
[1]; 313.15 K, 101 kPa, w1 = 0.5
  mass density: 1050 ± 3.5 kg/m3
[1]; 313.15 K, 101 kPa, w1 = 0.6
  mass density: 1061.4 ± 3.5 kg/m3
[1]; 313.15 K, 101 kPa, w1 = 0.7
  mass density: 1070.3 ± 3.4 kg/m3
[1]; 313.15 K, 101 kPa, w1 = 0.8
  mass density: 1077.4 ± 3.4 kg/m3
[1]; 323.15 K, 101 kPa, w1 = 0.5
  mass density: 1044.1 ± 3.5 kg/m3
[1]; 323.15 K, 101 kPa, w1 = 0.6
  mass density: 1055.2 ± 3.5 kg/m3
[1]; 323.15 K, 101 kPa, w1 = 0.7
  mass density: 1064 ± 3.4 kg/m3
[1]; 323.15 K, 101 kPa, w1 = 0.8
  mass density: 1070.9 ± 3.4 kg/m3
[1]; 333.15 K, 101 kPa, w1 = 0.5
  mass density: 1037.9 ± 3.5 kg/m3
[1]; 333.15 K, 101 kPa, w1 = 0.6
  mass density: 1048.6 ± 3.5 kg/m3
[1]; 333.15 K, 101 kPa, w1 = 0.7
  mass density: 1057.3 ± 3.4 kg/m3
[1]; 333.15 K, 101 kPa, w1 = 0.8
  mass density: 1064.2 ± 3.4 kg/m3
[1]; 343.15 K, 101 kPa, w1 = 0.5
  mass density: 1031.4 ± 3.5 kg/m3
[1]; 343.15 K, 101 kPa, w1 = 0.6
  mass density: 1041.9 ± 3.5 kg/m3
[1]; 343.15 K, 101 kPa, w1 = 0.7
  mass density: 1050.5 ± 3.4 kg/m3
[1]; 343.15 K, 101 kPa, w1 = 0.8
  mass density: 1057.4 ± 3.4 kg/m3
[1]; 353.15 K, 101 kPa, w1 = 0.5
  mass density: 1024.51 ± 3.5 kg/m3
[1]; 353.15 K, 101 kPa, w1 = 0.6
  mass density: 1034.7 ± 3.5 kg/m3
[1]; 353.15 K, 101 kPa, w1 = 0.7
  mass density: 1043.5 ± 3.4 kg/m3
[1]; 353.15 K, 101 kPa, w1 = 0.8
  mass density: 1050.5 ± 3.4 kg/m3
[1]; 363.15 K, 101 kPa, w1 = 0.5
  mass density: 1017.38 ± 3.5 kg/m3
[1]; 363.15 K, 101 kPa, w1 = 0.6
  mass density: 1027.3 ± 3.5 kg/m3
[1]; 363.15 K, 101 kPa, w1 = 0.7
  mass density: 1036.1 ± 3.4 kg/m3
[1]; 363.15 K, 101 kPa, w1 = 0.8
  mass density: 1043.1 ± 3.4 kg/m3
[1]; 373.15 K, 800 kPa, w1 = 0.5
  mass density: 1010.04 ± 3.5 kg/m3
[1]; 373.15 K, 800 kPa, w1 = 0.6
  mass density: 1020 ± 3.5 kg/m3
[1]; 373.15 K, 800 kPa, w1 = 0.7
  mass density: 1028.87 ± 3.4 kg/m3
[1]; 373.15 K, 800 kPa, w1 = 0.8
  mass density: 1035.98 ± 3.4 kg/m3
[1]; 383.15 K, 800 kPa, w1 = 0.5
  mass density: 1002.15 ± 3.5 kg/m3
[1]; 383.15 K, 800 kPa, w1 = 0.6
  mass density: 1012.14 ± 3.5 kg/m3
[1]; 383.15 K, 800 kPa, w1 = 0.7
  mass density: 1020.89 ± 3.4 kg/m3
[1]; 383.15 K, 800 kPa, w1 = 0.8
  mass density: 1028.08 ± 3.4 kg/m3
[1]; 393.15 K, 800 kPa, w1 = 0.5
  mass density: 994.94 ± 3.5 kg/m3
[1]; 393.15 K, 800 kPa, w1 = 0.6
  mass density: 1003.87 ± 3.4 kg/m3
[1]; 393.15 K, 800 kPa, w1 = 0.7
  mass density: 1012.73 ± 3.4 kg/m3
[1]; 393.15 K, 800 kPa, w1 = 0.8
  mass density: 1020.14 ± 3.4 kg/m3
[1]; 403.15 K, 800 kPa, w1 = 0.5
  mass density: 985.63 ± 3.5 kg/m3
[1]; 403.15 K, 800 kPa, w1 = 0.6
  mass density: 995.45 ± 3.5 kg/m3
[1]; 403.15 K, 800 kPa, w1 = 0.7
  mass density: 1004.18 ± 3.4 kg/m3
[1]; 403.15 K, 800 kPa, w1 = 0.8
  mass density: 1012.1 ± 3.4 kg/m3
[1]; 413.15 K, 800 kPa, w1 = 0.5
  mass density: 976.68 ± 3.5 kg/m3
[1]; 413.15 K, 800 kPa, w1 = 0.6
  mass density: 986.55 ± 3.5 kg/m3
[1]; 413.15 K, 800 kPa, w1 = 0.7
  mass density: 995.42 ± 3.4 kg/m3
[1]; 413.15 K, 800 kPa, w1 = 0.8
  mass density: 1003.23 ± 3.4 kg/m3
[1]; 423.15 K, 800 kPa, w1 = 0.5
  mass density: 967.44 ± 3.5 kg/m3
[1]; 423.15 K, 800 kPa, w1 = 0.6
  mass density: 977.38 ± 3.5 kg/m3
[1]; 423.15 K, 800 kPa, w1 = 0.7
  mass density: 986.45 ± 3.4 kg/m3
[1]; 423.15 K, 800 kPa, w1 = 0.8
  mass density: 995.43 ± 3.4 kg/m3

## CN(CCO)CCO [N-methyldiethanolamine]
[2]; 293.15 K
  mass density: 1039.9 ± 0.27 kg/m3
[2]; 303.15 K
  mass density: 1032.4 ± 0.26 kg/m3
[2]; 313.15 K
  mass density: 1024.9 ± 0.26 kg/m3
[2]; 323.15 K
  mass density: 1017.2 ± 0.25 kg/m3
[2]; 333.15 K
  mass density: 1009.5 ± 0.25 kg/m3
[2]; 343.15 K
  mass density: 1001.7 ± 0.24 kg/m3
[2]; 353.15 K
  mass density: 993.9 ± 0.24 kg/m3
[2]; 363.15 K
  mass density: 986 ± 0.24 kg/m3
[2]; 373.15 K
  mass density: 978.28 ± 0.24 kg/m3
[2]; 383.15 K
  mass density: 970.22 ± 0.24 kg/m3
[2]; 393.15 K
  mass density: 962.03 ± 0.24 kg/m3
[2]; 403.15 K
  mass density: 953.71 ± 0.24 kg/m3
[2]; 413.15 K
  mass density: 945.29 ± 0.24 kg/m3
[2]; 423.15 K
  mass density: 936.81 ± 0.25 kg/m3

## CN(CCO)CCO [N-methyldiethanolamine] + O
[1]; 293.15 K, 101 kPa, w1 = 0.5
  mass density: 1045.8 ± 2.7 kg/m3
[1]; 293.15 K, 101 kPa, w1 = 0.6
  mass density: 1052.6 ± 2.7 kg/m3
[1]; 293.15 K, 101 kPa, w1 = 0.7
  mass density: 1056.1 ± 2.7 kg/m3
[1]; 293.15 K, 101 kPa, w1 = 0.8
  mass density: 1055.5 ± 2.7 kg/m3
[1]; 303.15 K, 101 kPa, w1 = 0.5
  mass density: 1039.6 ± 2.7 kg/m3
[1]; 303.15 K, 101 kPa, w1 = 0.6
  mass density: 1045.8 ± 2.7 kg/m3
[1]; 303.15 K, 101 kPa, w1 = 0.7
  mass density: 1048.8 ± 2.7 kg/m3
[1]; 303.15 K, 101 kPa, w1 = 0.8
  mass density: 1048.1 ± 2.7 kg/m3
[1]; 313.15 K, 101 kPa, w1 = 0.5
  mass density: 1033 ± 2.7 kg/m3
[1]; 313.15 K, 101 kPa, w1 = 0.6
  mass density: 1038.6 ± 2.7 kg/m3
[1]; 313.15 K, 101 kPa, w1 = 0.7
  mass density: 1041.3 ± 2.7 kg/m3
[1]; 313.15 K, 101 kPa, w1 = 0.8
  mass density: 1040.5 ± 2.7 kg/m3
[1]; 323.15 K, 101 kPa, w1 = 0.5
  mass density: 1026.1 ± 2.7 kg/m3
[1]; 323.15 K, 101 kPa, w1 = 0.6
  mass density: 1031.2 ± 2.7 kg/m3
[1]; 323.15 K, 101 kPa, w1 = 0.7
  mass density: 1033.6 ± 2.7 kg/m3
[1]; 323.15 K, 101 kPa, w1 = 0.8
  mass density: 1032.6 ± 2.7 kg/m3
[1]; 333.15 K, 101 kPa, w1 = 0.5
  mass density: 1018.9 ± 2.7 kg/m3
[1]; 333.15 K, 101 kPa, w1 = 0.6
  mass density: 1023.6 ± 2.7 kg/m3
[1]; 333.15 K, 101 kPa, w1 = 0.7
  mass density: 1025.6 ± 2.7 kg/m3
[1]; 333.15 K, 101 kPa, w1 = 0.8
  mass density: 1024.6 ± 2.7 kg/m3
[1]; 343.15 K, 101 kPa, w1 = 0.5
  mass density: 1011.4 ± 2.7 kg/m3
[1]; 343.15 K, 101 kPa, w1 = 0.6
  mass density: 1015.6 ± 2.7 kg/m3
[1]; 343.15 K, 101 kPa, w1 = 0.7
  mass density: 1017.4 ± 2.7 kg/m3
[1]; 343.15 K, 101 kPa, w1 = 0.8
  mass density: 1016.4 ± 2.7 kg/m3
[1]; 353.15 K, 101 kPa, w1 = 0.5
  mass density: 1003.5 ± 2.7 kg/m3
[1]; 353.15 K, 101 kPa, w1 = 0.6
  mass density: 1007.4 ± 2.7 kg/m3
[1]; 353.15 K, 101 kPa, w1 = 0.7
  mass density: 1009 ± 2.7 kg/m3
[1]; 353.15 K, 101 kPa, w1 = 0.8
  mass density: 1007.9 ± 2.7 kg/m3
[1]; 363.15 K, 101 kPa, w1 = 0.5
  mass density: 995.3 ± 2.7 kg/m3
[1]; 363.15 K, 101 kPa, w1 = 0.6
  mass density: 998.9 ± 2.7 kg/m3
[1]; 363.15 K, 101 kPa, w1 = 0.7
  mass density: 1000.4 ± 2.7 kg/m3
[1]; 363.15 K, 101 kPa, w1 = 0.8
  mass density: 999.3 ± 2.7 kg/m3
[1]; 373.15 K, 800 kPa, w1 = 0.5
  mass density: 987 ± 2.7 kg/m3
[1]; 373.15 K, 800 kPa, w1 = 0.6
  mass density: 990.32 ± 2.7 kg/m3
[1]; 373.15 K, 800 kPa, w1 = 0.7
  mass density: 991.79 ± 2.7 kg/m3
[1]; 373.15 K, 800 kPa, w1 = 0.8
  mass density: 990.82 ± 2.7 kg/m3
[1]; 383.15 K, 800 kPa, w1 = 0.5
  mass density: 978.16 ± 2.7 kg/m3
[1]; 383.15 K, 800 kPa, w1 = 0.6
  mass density: 981.18 ± 2.7 kg/m3
[1]; 383.15 K, 800 kPa, w1 = 0.7
  mass density: 982.65 ± 2.7 kg/m3
[1]; 383.15 K, 800 kPa, w1 = 0.8
  mass density: 981.74 ± 2.7 kg/m3
[1]; 393.15 K, 800 kPa, w1 = 0.5
  mass density: 968.93 ± 2.7 kg/m3
[1]; 393.15 K, 800 kPa, w1 = 0.6
  mass density: 971.76 ± 2.7 kg/m3
[1]; 393.15 K, 800 kPa, w1 = 0.7
  mass density: 973.23 ± 2.7 kg/m3
[1]; 393.15 K, 800 kPa, w1 = 0.8
  mass density: 972.51 ± 2.7 kg/m3
[1]; 403.15 K, 800 kPa, w1 = 0.5
  mass density: 959.28 ± 2.7 kg/m3
[1]; 403.15 K, 800 kPa, w1 = 0.6
  mass density: 962.08 ± 2.7 kg/m3
[1]; 403.15 K, 800 kPa, w1 = 0.7
  mass density: 963.68 ± 2.7 kg/m3
[1]; 403.15 K, 800 kPa, w1 = 0.8
  mass density: 963.09 ± 2.7 kg/m3
[1]; 413.15 K, 800 kPa, w1 = 0.5
  mass density: 949.4 ± 2.7 kg/m3
[1]; 413.15 K, 800 kPa, w1 = 0.6
  mass density: 952.13 ± 2.7 kg/m3
[1]; 413.15 K, 800 kPa, w1 = 0.7
  mass density: 953.72 ± 2.7 kg/m3
[1]; 413.15 K, 800 kPa, w1 = 0.8
  mass density: 953.38 ± 2.7 kg/m3
[1]; 423.15 K, 800 kPa, w1 = 0.5
  mass density: 939.06 ± 2.7 kg/m3
[1]; 423.15 K, 800 kPa, w1 = 0.6
  mass density: 941.91 ± 2.7 kg/m3
[1]; 423.15 K, 800 kPa, w1 = 0.7
  mass density: 943.63 ± 2.7 kg/m3
[1]; 423.15 K, 800 kPa, w1 = 0.8
  mass density: 943.53 ± 2.7 kg/m3
